ChEMBL document CHEMBL5338827, “Evolution and Discovery of Matrine Derivatives as a New Class of Anti-Hepatic Fibrosis Agents Targeting Ewing Sarcoma Breakpoint Region 1 (EWSR1)” (J Med Chem, 2023)
Active and inactive are the calls of the source. The calls are words filed in the database; no cut-off is given here.

Assays:
[1] = test system: Rattus norvegicus; assay: Anti-hepatic fibrosis activity in bile duct ligation rat model assessed as reduction in ALT level at 100 mg/kg, po administered for 14 days; type: functional; details: time 14 day
[2] = test system: Rattus norvegicus; assay: Anti-hepatic fibrosis activity in bile duct ligation rat model assessed as reduction in bile duct proliferation at 100 mg/kg, po administered for 14 days; type: functional, organism-based; details: time 14.0 day
[3] = test system: HSC-T6; assay: Anti-fibrosis effect in HSC-T6 cells assessed as reduction in TGFbeta1-induced MMP-2 protein expression measured for 24 hrs; type: functional, cell-based; details: Rattus norvegicus, dose 2.5-20 µM
[4] = test system: Rattus norvegicus; assay: Anti-hepatic fibrosis activity in bile duct ligation rat model assessed as reduction in MMP2 mRNA expression at 100 mg/kg, po administered for 14 days by qRT-PCR analysis; type: functional, organism-based; details: time 14.0 day
[5] = test system: Mus musculus; assay: Anti-hepatic fibrosis activity in MDR2 knockout liver injury mouse model assessed as reduction in TIMP1 mRNA expression at 100 mg/kg, po administered once a day for 4 weeks by qRT-PCR analysis; type: functional, organism-based
[6] = test system: Rattus norvegicus; assay: Anti-hepatic fibrosis activity in bile duct ligation rat model assessed as reduction in LRAT positive cells in liver at 100 mg/kg, po administered for 14 days by Immunofluorescence analysis; type: functional, organism-based; details: time 14.0 day
[7] = test system: LX-2; assay: Anti-hepatic fibrosis activity in human LX2 cells assessed as inhibition of TGF-beta1 induced COL1A1 mRNA expression at 20 uM incubated for 24 hrs by qRT-PCR analysis; type: functional, cell-based
[8] = test system: Mus musculus; assay: Anti-hepatic fibrosis activity in MDR2 knockout liver injury mouse model assessed as reduction in AST level at 100 mg/kg, po administered once a day for 4 weeks (reference value: 400+/-156.78 U/L); type: functional
[9] = test system: Rattus norvegicus; assay: Anti-hepatic fibrosis activity in bile duct ligation rat model assessed as reduction in CoL1A1 mRNA expression at 100 mg/kg, po administered for 14 days by qRT-PCR analysis; type: functional, organism-based; details: time 14.0 day
[10] = molecular target: T1, Secreted frizzled-related protein 1 (Homo sapiens) (UniProt Q8N474); assay: Binding affinity to SFRP1 (unknown origin) in human LX2 cells by streptavidin bead based pull-down assay; type: cell-based
T1 sequence (whole entry): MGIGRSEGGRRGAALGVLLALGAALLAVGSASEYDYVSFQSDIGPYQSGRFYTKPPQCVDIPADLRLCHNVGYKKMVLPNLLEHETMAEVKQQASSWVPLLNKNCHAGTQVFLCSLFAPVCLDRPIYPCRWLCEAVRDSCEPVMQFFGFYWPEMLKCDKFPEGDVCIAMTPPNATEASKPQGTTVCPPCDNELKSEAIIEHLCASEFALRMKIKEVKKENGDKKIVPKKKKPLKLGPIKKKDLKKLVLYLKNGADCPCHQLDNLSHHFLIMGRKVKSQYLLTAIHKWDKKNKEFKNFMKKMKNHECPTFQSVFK

[11] = test system: LX-2; assay: Downregulation of CTGF mRNA level in human LX2 cells; type: functional, cell-based
[12] = test system: LX-2; assay: Anti-hepatic fibrosis activity in human LX2 cells assessed as inhibition of TGFbeta1-induced COL1A1 protein expression at 20 uM incubated for 24 hrs by western blot analysis; type: functional, cell-based
[13] = test system: LX-2; assay: Anti-hepatic fibrosis activity in human LX2 cells assessed as inhibition of TGF-beta1 induced MMP-2 mRNA expression at 20 uM incubated for 24 hrs by qRT-PCR analysis; type: functional, cell-based
[14] = test system: LX-2; assay: Anti-fibrosis effect in human LX2 cells assessed as reduction in TGFbeta1-induced fibronectin mRNA expression at 10 to 20 uM measured for 24 hrs; type: functional, cell-based; details: dose 10-20 µM
[15] = test system: Mus musculus; assay: Anti-hepatic fibrosis activity in MDR2 knockout liver injury mouse model assessed as reduction in COL1A1 mRNA expression at 100 mg/kg, po administered once a day for 4 weeks by qRT-PCR analysis; type: functional, organism-based
[16] = test system: Rattus norvegicus; assay: Anti-hepatic fibrosis activity in bile duct ligation rat model assessed as reduction in alpha-SMA positive cells in liver at 100 mg/kg, po administered for 14 days by Immunofluorescence analysis; type: functional, organism-based; details: time 14.0 day
[17] = test system: Rattus norvegicus; assay: Anti-hepatic fibrosis activity in bile duct ligation rat model assessed as reduction collagen accumulation at 100 mg/kg, po administered for 14 days; type: functional, organism-based; details: time 14.0 day
[18] = test system: LX-2; assay: Anti-fibrosis effect in human LX2 cells assessed as reduction in TGFbeta1-induced alpha-SMA mRNA expression at 10 to 20 uM measured for 24 hrs; type: functional, cell-based; details: dose 10-20 µM
[19] = test system: Rattus norvegicus; assay: Anti-hepatic fibrosis activity in bile duct ligation rat model assessed as reduction in serum TBiL level in serum at 100 mg/kg, po administered for 14 days; type: functional; details: time 14 day
[20] = test system: LX-2; assay: Anti-fibrosis effect in human LX2 cells assessed as reduction in TGFbeta1-induced fibronectin protein expression at 10 to 20 uM measured for 24 hrs; type: functional, cell-based; details: dose 10-20 µM
[21] = test system: Mus musculus; assay: Anti-hepatic fibrosis activity in MDR2 knockout liver injury mouse model assessed as reduction in bile duct hyperplasia at 100 mg/kg, po administered once a day for 4 weeks by H and E staining analysis; type: functional, organism-based
[22] = test system: Mus musculus; assay: Anti-hepatic fibrosis activity in MDR2 knockout liver injury mouse model assessed as reduction in LDH level at 100 mg/kg, po administered once a day for 4 weeks (reference value: 1080.83+/-182.40 U/L); type: functional
[23] = test system: LX-2; assay: Anti-fibrosis effect in human LX2 cells assessed as reduction in TGFbeta1-induced integrin subunit alpha-V protein expression at 10 to 20 uM measured for 24 hrs; type: functional, cell-based; details: dose 10-20 µM
[24] = test system: Rattus norvegicus; assay: Anti-hepatic fibrosis activity in bile duct ligation rat model assessed as reduction in ITGAV protein expression at 100 mg/kg, po administered for 14 days by Western blot analysis; type: functional, organism-based; details: time 14.0 day
[25] = test system: Rattus norvegicus; assay: Anti-hepatic fibrosis activity in bile duct ligation rat model assessed as reduction in ALP level at 100 mg/kg, po administered for 14 days; type: functional; details: time 14 day
[26] = molecular target: T2, RNA-binding protein EWS (Homo sapiens) (UniProt Q01844); assay: Induction of EWSR1 degradation in human LX2 cells at 20 uM measured upto 32 hrs in presence of cycloheximide; type: cell-based
T2 sequence (whole entry): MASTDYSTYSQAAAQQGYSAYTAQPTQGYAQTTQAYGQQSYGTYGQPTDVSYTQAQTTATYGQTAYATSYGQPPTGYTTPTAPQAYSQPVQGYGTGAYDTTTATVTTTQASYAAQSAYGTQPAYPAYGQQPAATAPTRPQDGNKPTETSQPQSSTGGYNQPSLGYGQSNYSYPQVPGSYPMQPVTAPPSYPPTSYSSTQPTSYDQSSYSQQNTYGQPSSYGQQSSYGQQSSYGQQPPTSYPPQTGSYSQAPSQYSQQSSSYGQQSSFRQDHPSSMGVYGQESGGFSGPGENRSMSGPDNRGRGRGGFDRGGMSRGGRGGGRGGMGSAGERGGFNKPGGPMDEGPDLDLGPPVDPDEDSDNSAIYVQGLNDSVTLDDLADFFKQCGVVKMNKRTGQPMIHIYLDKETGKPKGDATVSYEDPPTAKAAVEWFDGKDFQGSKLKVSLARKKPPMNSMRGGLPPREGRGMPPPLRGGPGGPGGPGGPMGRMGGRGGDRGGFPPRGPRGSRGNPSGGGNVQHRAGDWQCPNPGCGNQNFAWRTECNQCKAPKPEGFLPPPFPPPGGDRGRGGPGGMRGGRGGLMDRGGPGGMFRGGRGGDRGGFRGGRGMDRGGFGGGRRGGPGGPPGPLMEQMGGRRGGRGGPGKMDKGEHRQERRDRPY

Question: For `CCCC[C@@H]1[C@H]2CCCN3CCC[C@@H](CN1C(=O)Nc1c(CC)cccc1CC)[C@@H]23`, which Activity [1] is on record?
Answer: Its Activity is 60.67 U/L.

Question: What about the Activity [2] of the same molecule?
Answer: Its Activity is “Active”.

Question: What about the Activity [3] of the same molecule?
Answer: The Activity was “Dose-Dependent Effect”.

Question: What about the Activity [4] of the same molecule?
Answer: Its Activity is “Active”.

Question: And the Activity [5]?
Answer: Its Activity is “Active”.

Question: What about the Activity [6] of the same molecule?
Answer: Its Activity is “Active”.

Question: And the Activity [7]?
Answer: Its Activity is “Active”.

Question: And the Activity [8]?
Answer: Its Activity is 286.6 U/L.

Question: What about the Activity [9] of the same molecule?
Answer: Its Activity is “Active”.

Question: And the Activity [10]?
Answer: Its Activity is “inactive”.

Question: What about the Activity [11] of the same molecule?
Answer: Its Activity is “Active”.

Question: And the Activity [12]?
Answer: Its Activity is “Active”.

Question: What about the Activity [13] of the same molecule?
Answer: The Activity was “Active”.

Question: And the Activity [14]?
Answer: Its Activity is “Active”.

Question: And the Activity [15]?
Answer: Its Activity is “Active”.

Question: What about the Activity [16] of the same molecule?
Answer: Its Activity is “Active”.

Question: What about the Activity [17] of the same molecule?
Answer: The Activity was “Active”.

Question: What about the Activity [18] of the same molecule?
Answer: Its Activity is “Active”.

Question: And the Activity [19]?
Answer: The Activity was 92.48 µmol/L.

Question: And the Activity [20]?
Answer: The Activity was “Active”.

Question: And the Activity [21]?
Answer: Its Activity is “Active”.

Question: And the Activity [22]?
Answer: Its Activity is 884 U/L.

Question: What about the Activity [23] of the same molecule?
Answer: The Activity was “Active”.

Question: What about the Activity [24] of the same molecule?
Answer: The Activity was “Active”.

Question: What about the Activity [25] of the same molecule?
Answer: The Activity was 375 U/L.

Question: And the Activity [26]?
Answer: Its Activity is “inactive”.
